# System: asymmetric di-methyl PABP1 in RKO cells
# Test: RKO methylation assay, In Cell Western (ICW) for asymmetric di-methyl PABP1
# Assay type: cell-based
# Details: Homo sapiens, RKO, Cellular potencies, ICW PABP1me2a
# Procedure, shortened: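 In-cell Western on fixed RKO cells after 48 h compound exposure: anti-asymmetric di-methyl PABP1 signal at 800 nm over DRAQ5 DNA signal at 700 nm. Percent inhibition set between DMSO wells and wells with 20 μM reference compound; IC50 curves fitted in triplicate.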
row,IC50 [µM],Structure (SMILES)
1,< 5,CNCC(O)COc1cccc(-c2nc(NCC3(OC)CCOCC3)c(C)c(-c3c(C)noc3C)n2)c1 (stereo not drawn) [Example 300-1a]
2,5 to 10,CNCC(O)COc1cccc(-c2nc(NCC3(N4CCC4)CCOCC3)c(C)c(-c3c(C)noc3C)n2)c1 (stereo not drawn) [Example 301-1a]
3,< 5,CNCC(O)COc1cccc(-c2nc(NCC3(N4CC(F)(F)C4)CCOCC3)c(C)c(-c3c(C)noc3C)n2)c1 (stereo not drawn) [Example 302-1a]
4,< 5,CNCC(O)COc1cccc(-c2nc(OCC3CCN(C4CC4)CC3)c(C)c(-c3c(C)noc3C)n2)c1 (stereo not drawn) [Example 303-1a]
5,< 5,CNC[C@H](O)COc1ccc(Cl)c(-c2nc(NC3CCN(C(=O)OC)CC3)c(Cl)c(-c3c(C)noc3C)n2)c1 [Example 305-1a]
6,< 5,CNCC(O)COc1cccc(-c2nc(NC[C@@H]3CN(C(=O)OC)CCO3)c(C)c(-c3c(C)noc3C)n2)c1 (stereo partly drawn) [Example 306-1a]
7,10 to 20,CNCC(O)COc1cccc(-c2nc(N[C@@H]3CCNC3)c(C)c(-c3c(C)noc3C)n2)c1 (stereo partly drawn) [Example 307-1a]
8,< 5,CNCC(O)COc1cccc(-c2nc(-c3c(C)noc3C)c(C)c(N(C)C)n2)c1 (stereo not drawn) [Example 308-1a]
9,< 5,CNCC(O)COc1cccc(-c2nc(-c3c(C)noc3C)c(C)c(N3CC4(CN(C(=O)N(C)C)C4)C3)n2)c1 (stereo not drawn) [Example 309-1a]
10,5 to 10,CNCC(O)COc1cc(Cl)cc(-c2nc(N[C@@H]3CCOC3)c(C)c(-c3ccncc3)n2)c1 (stereo partly drawn) [Example 331-1a]
11,10 to 20,CNCC(O)COc1cccc(-c2nc(N[C@@H]3CCOC3)c(C)c(-c3ccncc3)n2)c1 (stereo partly drawn) [Example 332-1a]
12,10 to 20,CNCC(O)COc1cc(Cl)cc(-c2nc(-c3ccncc3)c(C)c(N(C)[C@H]3CCOC3)n2)c1 (stereo partly drawn) [Example 334-1a]
13,5 to 10,CNCC(O)COc1cccc(-c2nc(NC3CCOC3)c(C)c(-c3cn(C)nn3)n2)c1 (stereo not drawn) [Example 335-1a]
14,10 to 20,CNCC(O)COc1cccc(-c2nc(N[C@@H]3CCOC3)c(C)c(-c3cn[nH]c3)n2)c1 (stereo partly drawn) [Example 338-1a]
15,10 to 20,CNCC(O)COc1cccc(-c2nc(-c3ccncc3)c(C)c(N(C)[C@@H]3CCOC3)n2)c1 (stereo partly drawn) [Example 339-1a]
16,10 to 20,CNCC(O)COc1cccc(-c2nc(N[C@@H]3CCOC3)c(C)c(-c3cncc(C(=O)OC)c3)n2)c1 (stereo partly drawn) [Example 340-1a]
17,10 to 20,CNCC(O)COc1cccc(-c2nc(N[C@@H]3CCOC3)c(C)c(-c3cncc(C#N)c3)n2)c1 (stereo partly drawn) [Example 341-1a]
18,10 to 20,CNCC(O)COc1cccc(-c2nc(N[C@@H]3CCOC3)c(C)c(-c3cncnc3)n2)c1 (stereo partly drawn) [Example 350-1a]
19,5 to 10,CNCC(O)COc1cccc(-c2nc(NC3CCOC3)c(C)c(N3CCN[C@@H](C)C3)n2)c1 (stereo partly drawn) [Example 351-1a]
20,10 to 20,CNCC(O)COc1cccc(-c2nc(NC3CCOC3)c(C)c(N3CCNC[C@H]3C)n2)c1 (stereo partly drawn) [Example 352-1a]
21,10 to 20,CNCC(O)COc1cccc(-c2nc(N[C@@H]3CCOC3)c(C)c(-c3cnc4[nH]ccc4c3)n2)c1 (stereo partly drawn) [Example 355-1a]
22,10 to 20,CNCC(O)COc1cccc(-c2nc(N[C@@H]3CCOC3)c(C)c(-c3cnc(OC)nc3)n2)c1 (stereo partly drawn) [Example 356-1a]
23,10 to 20,CNCC(O)COc1cccc(-c2nc(N[C@@H]3CCOC3)c(C)c(N3CCC[C@@H](O)C3)n2)c1 (stereo partly drawn) [Example 358-1a]
24,10 to 20,CNCC(O)COc1cccc(-c2nc(N[C@@H]3CCOC3)c(C)c(N3CCn4ccnc4C3)n2)c1 (stereo partly drawn) [Example 359-1a]
25,10 to 20,CNCC(O)COc1cccc(-c2nc(NCCCCl)c(C)c(N[C@@H]3CCOC3)n2)c1 (stereo partly drawn) [Example 366-1a]

row,IC50 [µM],Structure (SMILES)
1,5 to 10,CNCC(O)COc1cccc(-c2nc(N[C@@H]3CCOC3)c(C)c(N3CCC(N4CCOCC4)CC3)n2)c1 (stereo partly drawn) [Example 367-1a]
2,< 5,CNCC(O)COc1cccc(-c2nc(N[C@@H]3CCOC3)c(C)c(N3CC[C@H](N(C)C)C3)n2)c1 (stereo partly drawn) [Example 368-1a]
3,10 to 20,CNCC(O)COc1cccc(-c2nc(N[C@@H]3CCOC3)c(C)c(N3CC[C@@H](OC)C3)n2)c1 (stereo partly drawn) [Example 369-1a]
4,5 to 10,CNCC(O)COc1cccc(-c2nc(N[C@@H]3CCOC3)c(C)c(N3CCC(OC)CC3)n2)c1 (stereo partly drawn) [Example 370-1a]
5,5 to 10,CNCC(O)COc1cccc(-c2nc(N[C@@H]3CCOC3)c(Cl)c(N3CCOCC3)n2)c1 (stereo partly drawn) [Example 376-1a]
6,10 to 20,CNCC(O)COc1cccc(-c2nc(N[C@@H]3CCOC3)c(C)c(N3CCC3)n2)c1 (stereo partly drawn) [Example 377-1a]
7,10 to 20,CNCC(O)COc1cccc(-c2nc(N[C@@H]3CCOC3)c(C)c(N3CCC[C@H]4CN(Cc5ccccc5)C[C@H]43)n2)c1 (stereo partly drawn) [Example 378-1a]
8,10 to 20,CNCC(O)COc1cccc(-c2nc(N[C@@H]3CCOC3)c(C)c(-n3nc(C)cc3C)n2)c1 (stereo partly drawn) [Example 382-1a]
9,10 to 20,CNCC(O)COc1cccc(-c2nc(N[C@@H]3CCOC3)c(C)c(N3CCN(CC(=O)N(C)C)CC3)n2)c1 (stereo partly drawn) [Example 391-1a]
10,5 to 10,CNCC(O)COc1cccc(-c2nc(N[C@@H]3CCOC3)c(C)c(N3CC[C@@H](N(C)C)C3)n2)c1 (stereo partly drawn) [Example 392-1a]
11,< 5,CNCC(O)COc1cccc(-c2nc(N[C@@H]3CCOC3)c(C)c(N3Cc4cccnc4C3)n2)c1 (stereo partly drawn) [Example 394-1a]
12,10 to 20,CNCC(O)COc1cccc(-c2nc(N[C@@H]3CCOC3)c(C)c(N3CCN(C(C)=O)[C@@H](C)C3)n2)c1 (stereo partly drawn) [Example 396-1a]
13,10 to 20,CNCC(O)COc1cccc(-c2nc(NC3CCOC3)c(C)c(C(=O)NC3CCN(C)CC3)n2)c1 (stereo not drawn) [Example 397-1a]
14,10 to 20,CNCC(O)COc1cccc(-c2nc(NC3CCOC3)c(C)c(N3CC4(CCNCC4)c4ccccc43)n2)c1 (stereo not drawn) [Example 398-1a]
15,5 to 10,CNCC(O)COc1cccc(-c2nc(N[C@@H]3CCOC3)c(C)c(-c3ccc(OC)nc3)n2)c1 (stereo partly drawn) [Example 408-1a]
16,10 to 20,CNCC(O)COc1cccc(-c2nc(N[C@@H]3CCOC3)c(C)c(N3CC4CCC(C3)O4)n2)c1 (stereo partly drawn) [Example 412-1a]
17,10 to 20,CNCC(O)COc1cccc(-c2nc(N[C@@H]3CCOC3)c(C)c(C3=CC(C)(C)NC(C)(C)C3)n2)c1 (stereo partly drawn) [Example 415-1a]
18,5 to 10,CNCC(O)COc1cccc(-c2nc(NC3CCOC3)c(C)c(N3CCN(C(C)=O)C[C@H]3C)n2)c1 (stereo partly drawn) [Example 421-1a]
19,10 to 20,CNCC(O)COc1cccc(-c2nc(N[C@@H]3CCOC3)c(C)c(N3CCNCC3)n2)c1 (stereo partly drawn) [Example 422-1a]
20,10 to 20,CNCC(O)COc1cccc(-c2nc(N[C@@H]3CCOC3)c(C)c(N3CCC4(CC3)CNC(=O)C4)n2)c1 (stereo partly drawn) [Example 424-1a]
21,10 to 20,CNCC(O)COc1cccc(-c2nc(N[C@@H]3CCOC3)c(C)c(N3CCS(=O)(=O)CC3)n2)c1 (stereo partly drawn) [Example 425-1a]
22,< 5,CNCC(O)COc1cccc(-c2nc(N[C@@H]3CCOC3)c(C)c(N3Cc4ccncc4C3)n2)c1 (stereo partly drawn) [Example 427-1a]
23,10 to 20,CNCC(O)COc1cccc(-c2nc(N[C@@H]3CCOC3)c(C)c(N3CCC4(CCNCC4)CC3)n2)c1 (stereo partly drawn) [Example 429-1a]
24,< 5,CNCC(O)COc1cccc(-c2nc(N[C@@H]3CCOC3)c(C)c(N3CCN(S(C)(=O)=O)CC3)n2)c1 (stereo partly drawn) [Example 434-1a]
25,10 to 20,CNCC(O)COc1cccc(-c2nc(N[C@@H]3CCOC3)c(C)c(N3CCN(C)C(=O)C3)n2)c1 (stereo partly drawn) [Example 435-1a]

row,Structure (SMILES),IC50 [µM]
1,CNCC(O)COc1cccc(-c2nc(N[C@@H]3CCOC3)c(C)c(N(C)C3CCN(C)CC3)n2)c1 (stereo partly drawn) [Example 379-1a],10 to 20

# From patent publication US10633389B2, “CARM1 inhibitors and uses thereof” (Epizyme, Inc., priority 2013, dated 2020)
